Experimental data from US8703813B2, “Compound with spiro chiral carbon backbone, preparation method thereof, and pharmaceutical composition containing the same” (SNU R & DB Foundation, priority 2008, dated 2014).

Tests used:
mouse spleen cells = test: Cytotoxicity, Cell Titer-Glo cell viability; type: cell-based; conditions: mouse spleen cells vs LXR
Experimental: (§1) Spleen cells of a mouse were used in measurement of cytotoxicity in […] cells. The spleen cells of the mouse were prepared as follows. The spleen from a 5˜6-week age mouse was finely minced, and only floating spleen cells were filtered through a net having a pore size of 100 μm. Erythrocytes mixed with the spleen cells were lysed by using erythrocyte lysis buffer, and then removed by centrifugation, precipitation and washing of the cells. The prepared spleen cells were seeded in 96-well plates at a concentration of 5×10^5 cells/well. Here, the spleen cells were treated with the compound of Formula 1 for measurement of toxicity according to the concentrations. The next day, the cells cultured for 16-18 hours were treated with Cell Titer-Glo Luminescent Cell Viability Assay (Promega), and after 10 minutes, cell viability was measured using the luminometer.

[1] = Cytotoxicity, Cell Titer-Glo cell viability; type: cell-based, mouse; conditions: primary mouse spleen cells; mouse spleen cells, 16-18 hours
Experimental: as §1

C3H/10T1/2 cells = test: Adipocyte differentiation inhibitory ability (Oil Red O staining); type: cell-based, mouse
Experimental: C3H/10T1/2 cells, which are mouse mesenchymal progenitor cells purchased from ATCC, were diluted in DMEM (Dulbecco's Modified Eagle Medium) medium containing 5.958 g/L HEPES, 3.7 g/L sodium bicarbonate and 10% FBS (fetal bovine serum), and cultured in 24-well culture plates at a density of 4×10^4 cells/well, in the presence of 5% CO2 at 37° C. for 2 days. When the cultured cells were grown to 90˜100% confluency in the culture plates, the cells were cultured in DMEM medium containing 10% FBS, to which 5μ/ml insulin, 1 μM dexamethason, and 5 μM troglitazone were added, in the presence of 5% CO2 at 37° C. for 8 days, to induce differentiation into adipocyte. The medium was exchanged every other day during differentiation. The C3H/10T1/2 cell line, in which differentiation into the adipocyte was induced, was fixed with 3.7% formaldehyde at room temperature for 30 minutes. An oil Red O solution dissolved in isopropanol at a concentration of 0.5% was diluted in distilled water at a ratio of 6:4, filtered through a 0.2 μm filter, and poured to the fixed cell line, which was stained for 1 hour. In order to observe only the cells differentiated into the adiopocyte, the dye solution was removed and the cells were washed with distilled water two times.
116V specimen extracted from sponge was dissolved in DMSO solvent, and allowed to treat C3H/10T1/2 cell lines, which are mouse mesenchymal progenitor cells, at concentrations of 1, 2.5, 5, 10, and 20 μg/ml. […] Then, after specimens of the compound 1 (1163), the compound 2 (1162), the compound 3 (1161), and the compound 4 (1164), which were purely separated from the 116V and 116VI species were obtained, the same experiment was performed. […] Remarkable cytotoxicity was not observed in each of the specimens during differentiation of adipocytes (FIG. 8).

C57BL/6 mice = test: Fatty liver inhibitory efficacy in T0901317-induced fatty liver model; type: in vivo, mouse
Excerpt: In order to verify the fatty liver inhibitory efficacy of the compound 1 developed in the present invention, C57BL/6 mice were used in this experiment. A fatty liver model was constructed by administering T0901317, which generates fatty liver, to 10-week age C57BL/6 mice while feeding the C57BL/6 mice with general feed-additive. The fatty liver inhibitory efficacy of the compound 1 was observed by orally administering this compound. A mouse fed with 0.75% of only carboxymethylcellulose, as a medication deliver, was used for a negative control group, and a mouse fed with only TO901317 was used for a positive control group. In addition, in order to analyze gene expression of C57BL/6 mouse liver, the mouse livers of the negative control group, the positive control group, and the treatment group were extracted and treated with Trizol, to obtain RNAs. The obtained RNAs were quantified using an absorption spectrometer (Nanodrop), and cDNAs were obtained from RNAs having the same amount among respective groups through an RT-PCR method using oligo dT and reverse transcriptase. The real-time polymerase chain reaction was performed using cDNAs, which were obtained for analysis of mRNA change among groups, as templates, and using primers of transporter genes related to fat synthesis and inflow of fat to the liver. […] Accordingly, the compounds of the present invention and derivatives thereof are expected to play a very innovative role in treatment of alcoholic fatty liver, non-alcoholic fatty liver, and fatty liver due to viral infection.

Runx2 and TAZ = test: Western blot of osteoblast differentiation mark factors; type: cell-based, mouse; conditions: C3H/10T1/2 treated for 6 days
Experimental: An aliquot 116V and an aliquot 116VI extracted and partitioned from sponges are dissolved in a DMSO solvent, and used to treat the C3H/10T1/2 cell line, mesenchymal progenitor cells, at concentrations of 1, 2.5, 5, 10, and 20 ug/ml. […] Since then, the same experiment was performed on the compound (1163), the compound 2 (1162), the compound 3 (1161), and the compound 4 (1164), which were purely separated from the aliquots 116V and 116VI, and as a result, it could be confirmed that the osteoblast differentiation ability was increased in the compounds 1, 3, and 4. […] To study a mechanism with respect to osteoblast differentiation ability, the C3H/10T1/2 cell lines were treated with the compound 1 and the compound 4 for 6 days, respectively. […] Also, the C3H/10T1/2 cell lines were treated with the compound 1 and the compound 4 for 6 days, respectively. […] Furthermore, it could be ascertained that combining of Runx2 and TAZ proteins was increased by treatment of the compounds and thus the activity of Runx2-meditated transcription was increased. The compound 5, which is an ester derivative of the compound 1 (1163), was synthesized in order to prepare a material having more excellent bioactivity, and the structure of the compound 5 obtained thus was determined. […]

Compound: CC(C)=CCC/C(C)=C/[C@H]1CC(C)=C[C@@]2(C=C(CO)[C@@H]3CC(=O)C(C)=C[C@@H]3O2)O1 [Compound 1]
- cytotoxicity IC50 compared with antagonistic concentration against LXR (mouse spleen cells): ≥ 1000 times
- IC50 [1]: 63 µM
- adipocyte differentiation inhibitory ability at low concentration (C3H/10T1/2 cells; C3H/10T1/2, 1 μg/ml): remarkable adipocyte differentiation inhibitory ability
- adipocyte differentiation ability (C3H/10T1/2 cells; C3H/10T1/2, 10 μg/ml): remarkably decreased
- liver expression of fatty acid synthetic genes and transporter genes of transporting fats to the liver (C57BL/6 mice; mouse liver, real-time PCR): inhibits the expression
- fatty liver inhibitory efficacy (C57BL/6 mice; oral administration, T0901317-induced fatty liver, C57BL/6 mice): very superior fatty liver inhibitory efficacy
- body weight among the treatment group and the control groups (C57BL/6 mice; oral administration, fatty liver-induced C57BL/6 mice): no difference in body weight
- protein expression of Runx2 and TAZ (Runx2 and TAZ): increased
